# In US20240228482A1, “COMPOUNDS, COMPOSITIONS AND METHODS OF TREATING CANCER” (HOTSPOT THERAPEUTICS, INC., priority 2021, published 2024):
# Target: T1, CBL-B (Homo sapiens, UniProt Q13191)
# T1 construct: GST
# Assay: CBL-B TR-FRET IC50 screening (E1/E2 ubiquitination, Biotin-Ubiquitin, Anti GST-Tb donor / Streptavidin-d2 acceptor)
# Assay type: biochemical
# Conditions: CBL-B 10 nM final; 11-point titration from 100 uM; binned A-F; read-out: CBL-B TR-FRET activity IC50
# T1 sequence (Q13191 whole entry): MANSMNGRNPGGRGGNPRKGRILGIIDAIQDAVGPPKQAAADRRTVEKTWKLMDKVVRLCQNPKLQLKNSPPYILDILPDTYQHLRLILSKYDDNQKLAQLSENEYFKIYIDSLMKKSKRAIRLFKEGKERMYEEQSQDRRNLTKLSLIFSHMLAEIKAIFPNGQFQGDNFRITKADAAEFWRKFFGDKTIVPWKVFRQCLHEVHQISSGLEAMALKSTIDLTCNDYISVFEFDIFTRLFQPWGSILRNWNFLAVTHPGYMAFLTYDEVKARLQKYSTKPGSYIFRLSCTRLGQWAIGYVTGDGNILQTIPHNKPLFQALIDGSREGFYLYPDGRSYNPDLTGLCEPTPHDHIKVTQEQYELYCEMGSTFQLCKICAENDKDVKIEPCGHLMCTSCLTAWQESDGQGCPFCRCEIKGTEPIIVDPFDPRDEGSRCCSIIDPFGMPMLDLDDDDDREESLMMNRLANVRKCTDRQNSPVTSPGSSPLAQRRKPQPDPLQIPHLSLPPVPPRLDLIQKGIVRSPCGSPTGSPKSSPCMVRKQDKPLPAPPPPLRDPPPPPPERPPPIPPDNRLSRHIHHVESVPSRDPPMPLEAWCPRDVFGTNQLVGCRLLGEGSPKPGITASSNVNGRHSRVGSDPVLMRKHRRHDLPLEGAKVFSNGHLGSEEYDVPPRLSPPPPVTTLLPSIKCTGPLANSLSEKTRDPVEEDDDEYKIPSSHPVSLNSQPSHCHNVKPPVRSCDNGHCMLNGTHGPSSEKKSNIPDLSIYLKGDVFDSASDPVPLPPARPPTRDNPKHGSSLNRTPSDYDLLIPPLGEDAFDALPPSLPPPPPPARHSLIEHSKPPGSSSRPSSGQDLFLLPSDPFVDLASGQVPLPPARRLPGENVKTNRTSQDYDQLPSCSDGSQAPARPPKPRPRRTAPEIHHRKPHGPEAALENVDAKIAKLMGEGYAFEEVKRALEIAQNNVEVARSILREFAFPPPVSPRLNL
row,SMILES,IC50 [µM]
1,Cc1cccn2c(=O)n(-c3cccc(C4(Cc5nncn5C)COC4)c3)cc12 [Compound 70],0.301 to 1
2,"[2H]C([2H])([2H])n1cnnc1[C@H](c1cccc(-n2cc3c(C(F)(F)F)cc(CN4CCC[C@H](C)C4)cn3c2=O)c1)C1CCC1 (single isomer, unassigned) [Compound 136]",0.301 to 1
3,C[C@@H]1CN(Cc2cc(C(F)(F)F)c3cn(-c4cccc([C@H](c5nncn5C)C5COC5)c4)c(=O)n3c2)CCO1 [Compound 304],< 0.1
4,"Cc1conc1[C@H](c1cccc(-n2cc3c(C(F)(F)F)cc(CN4CCC[C@H](C)C4)cn3c2=O)c1)C1CCC1 (single isomer, unassigned) [Compound 302]",0.301 to 1
5,"Cn1cnnc1[C@]1(c2cccc(-n3cc4c(C(F)(F)F)cc(CN5CC6(CC6)C5)cn4c3=O)c2)C[C@H](C)C1 (single isomer, unassigned) [Compound 236]",< 0.1
6,COC1CCN(Cc2cc(C(F)(F)F)c3cn(-c4cccc(C5(Cc6nncn6C)COC5)c4)c(=O)n3c2)CC1 [Compound 49],< 0.1
7,"C[C@H]1CCCN(Cc2cc(C(F)(F)F)c3cn(-c4cccc([C@H](c5nncn5C)C5CC(F)(F)C5)c4)c(=O)n3c2)C1 (single isomer, unassigned) [Compound 343]",0.1 to 0.3
8,Cc1[nH]nnc1[C@@H](c1cccc(-n2cc3c(C(F)(F)F)cc(CN4CCC[C@H](C)C4)cn3c2=O)c1)C1CCC1 [Compound 327],< 0.1
9,Cn1cnnc1CC1(c2cccc(-n3cc4c(C(F)(F)F)cc(CN5CCC(F)CC5)cn4c3=O)c2)COC1 [Compound 13],< 0.1
10,CN(Cc1cc(C(F)(F)F)c2cn(-c3cccc([C@H](c4nncn4C)C4CCC4)c3)c(=O)n2c1)Cc1cncs1 [Compound 275],< 0.1
11,Cn1cnnc1[C@@H](c1cccc(-n2cc3c(C(F)(F)F)cc(CN4CC(C)(C)C4)cn3c2=O)c1)C1CCC1 [Compound 337],< 0.1
12,C[C@H]1CCCN1Cc1cc(C(F)(F)F)c2cn(-c3cccc([C@@H](c4nncn4C)C4CCC4)c3)c(=O)n2c1 [Compound 380_P1],1 to 3
13,C[C@H]1CCCN(Cc2cc(C(F)(F)F)c3cn(-c4cccc(C5(Cc6nncn6C(F)F)COC5)c4)c(=O)n3c2)C1 [Compound 48],< 0.1
14,Cn1cnnc1CC1(c2cccc(-n3cc4c(C(F)(F)F)cc(CN5CC[C@@H](C#N)C5)cn4c3=O)c2)COC1 [Compound 24],< 0.1
15,CC1CCN(Cc2cc(C(F)(F)F)c3cn(-c4cccc([C@H](c5nncn5C)C5CCC5)c4)c(=O)n3c2)CC1 [Compound 376],< 0.1
16,"CC1CN(Cc2cc(C(F)(F)F)c3cn(-c4cccc([C@]5(Cc6nncn6C)C[C@@H](C#N)C5)c4)c(=O)n3c2)CCC1(F)F (single isomer, unassigned) [Compound 100]",< 0.1

row,SMILES,IC50 [µM]
1,C[C@@H](c1cc(C(F)(F)F)c2cn(-c3cccc(C4(Cc5nncn5C)COC4)c3)c(=O)n2c1)N1CCC(F)CC1 [Compound 33],< 0.1
2,"CO[C@@H]1CCCCN(Cc2cc(C(F)(F)F)c3cn(-c4cccc([C@H](c5nncn5C)C5CCC5)c4)c(=O)n3c2)C1 (single isomer, unassigned) [Compound 262]",< 0.1
3,"CN1CCCCC1c1cc(C(F)(F)F)c2cn(-c3cccc(C4(Cc5nncn5C)COC4)c3)c(=O)n2c1 (single isomer, unassigned) [Compound 187]",0.1 to 0.3
4,"CC1CC(c2cccc(-n3cc4c(C(F)(F)F)cc(CN5CCO[C@H](C)C5)cn4c3=O)c2)(c2nncn2C)C1 (single isomer, unassigned) [Compound 190]",< 0.1
5,"CC1CC(c2cccc(-n3cc4c(C(F)(F)F)cc(Br)cn4c3=O)c2)(c2nncn2C)C1 (single isomer, unassigned) [Compound 150]",< 0.1
6,Cn1cnnc1CC(c1cccc(-n2cc3c(C(F)(F)F)cccn3c2=O)c1)n1cccn1 (stereo not shown) [Compound 142],> 10
7,Cn1cnnc1C(F)(F)[C@](C)(F)c1cccc(-n2cc3c(C(F)(F)F)cc(CN4CC[C@H](F)C4)cn3c2=O)c1 [Compound 26],0.1 to 0.3
8,"C[C@H]1CCCN(Cc2cc(C(F)(F)F)c3cn(-c4cccc([C@@H](c5nncn5C)C5CCOCC5)c4)c(=O)n3c2)C1 (single isomer, unassigned) [Compound 359]",> 10
9,Cn1cnnc1[C@@H](c1cccc(-n2cc3c(C(F)(F)F)cc(CN4CCc5ncsc5C4)cn3c2=O)c1)C1CCC1 [Compound 265],< 0.1
10,Cn1cnnc1[C@@H](c1cccc(-n2cc3c(C(F)(F)F)cc(CN4CCO[C@H](C(F)(F)F)C4)cn3c2=O)c1)C1CCC1 [Compound 321],< 0.1
11,Cn1cnnc1[C@]1(c2cccc(-n3cc4c(C(F)(F)F)cc(CN5CC[C@H](F)C5)cn4c3=O)c2)C[C@@H](C)C1 [Compound 216],< 0.1
12,COC(=O)N1CCN(Cc2cc(C(F)(F)F)c3cn(-c4cccc([C@H](c5nncn5C)C5CCC5)c4)c(=O)n3c2)CC1 [Compound 351_P2],< 0.1
13,C[C@H]1CCCN(Cc2cc(C(F)(F)F)c3cn(-c4cccc([C@@H](CC5CC5)c5nncn5C)c4)c(=O)n3c2)C1 [Compound 332-p2],< 0.1
14,Cn1cnnc1[C@@H](c1cccc(-n2cc3c(C(F)(F)F)cc(CNC4COC4)cn3c2=O)c1)C1CCC1 [Compound 324],< 0.1
15,C[C@H]1CCCN(Cc2cc(C(F)(F)F)c3cn(-c4cccc(C5(c6nncn6C)CC6(CC6)C5)c4)c(=O)n3c2)C1 [Compound 74],0.1 to 0.3
16,"C[C@@H]1CN(Cc2cc(C(F)(F)F)c3cn(-c4cccc([C@]5(c6nncn6C)C[C@@H](C)C5)c4)c(=O)n3c2)CCO1 (single isomer, unassigned) [Compound 213]",< 0.1

# Same assay, conditions: second part of Table 2 (head 'Patent Cmpd No / Updated Activity'); same CBL-B TR-FRET IC50 bins A-F; read-out: Updated Activity
row,SMILES,IC50 [µM]
1,"CCn1cnnc1[C@H](c1cccc(-n2cc3c(C(F)(F)F)cc(CN4CCC[C@H](C)C4)cn3c2=O)c1)C1CCC1 (single isomer, unassigned) [Compound 426]",> 10
2,Cn1cnnc1[C@@H](c1cc(-c2cnn[nH]2)cc(-n2cc3c(C(F)(F)F)cccn3c2=O)c1)C1CCC1 [Compound 536],> 10
3,Cn1cnnc1C1(c2cccc(-n3cc4c(C(F)(F)F)cc(CN5CCC(C)(F)CC5)cn4c3=O)c2)CCC1 [Compound 471],< 0.1
4,CC(=O)N1CC([C@@H](c2cccc(-n3cc4c(C(F)(F)F)cc(CN5CCC[C@H](C)C5)cn4c3=O)c2)c2nncn2C)C1 [Compound 434_P1],> 10
5,"C[C@@H]1CN(Cc2cc(C(F)(F)F)c3cn(-c4cccc(C5(c6nncn6C)CC6(CC6)C5)c4)c(=O)n3c2)CCC1(F)F (single isomer, unassigned) [Compound 464]",< 0.1
6,"CO[C@H]1C[C@@](c2cccc(-n3cc4c(C(F)(F)F)cc([C@@H](C)N5CCC[C@H](C)C5)cn4c3=O)c2)(c2nncn2C)C1 (single isomer, unassigned) [Compound 600]",< 0.1
7,"C[C@H]1CCCN(Cc2cc(C(F)(F)F)c3cn(-c4cccc([C@@H](c5nncn5C(F)F)C5CCC5)c4)c(=O)n3c2)C1 (single isomer, unassigned) [Compound 463]",> 10
8,"Cn1cnnc1[C@@H](c1cccc(-n2cc3c(C(F)(F)F)cc(CN4CCC[C@@](C)(O)C4)cn3c2=O)c1)C1CCC1 (single isomer, unassigned) [Compound 569]",< 0.1
9,C[C@H]1CCN1Cc1cc(C(F)(F)F)c2cn(-c3cccc([C@H](c4nncn4C)C4CCC4)c3)c(=O)n2c1 [Compound 565_P2],< 0.1
10,"C[C@H](c1cc(C(F)(F)F)c2cn(-c3cccc([C@H](c4nncn4C)C4CCC4)c3)c(=O)n2c1)N1CC[C@H](C#N)C1 (single isomer, unassigned) [Compound 573_P1]",< 0.1
11,C[C@@H]1CCCN(Cc2cc(C(F)(F)F)c3cn(-c4cccc(C5(Cc6nncn6C)COC5)c4)c(=O)n3c2)C1 [Compound 416],< 0.1
12,Cn1cnnc1[C@@H](c1cccc(-n2cc3c(C(F)(F)F)cc(CN4CCC5(CCOC5=O)CC4)cn3c2=O)c1)C1CCC1 [Compound 545],< 0.1
13,"COC1([C@H](c2cccc(-n3cc4c(C(F)(F)F)cc(CN5CCC[C@H](C)C5)cn4c3=O)c2)c2nncn2C)CCC1 (single isomer, unassigned) [Compound 578]",1 to 3
14,"C[C@@H]1CN(Cc2cc(C(F)(F)F)c3cn(-c4cccc([C@H](c5nncn5C)C5CCC5)c4)c(=O)n3c2)CC[C@@H]1O (single isomer, unassigned) [Compound 570]",< 0.1
15,"Cc1cn(CC#N)nc1[C@@H](c1cccc(-n2cc3c(C(F)(F)F)cc(CN4CCC[C@H](C)C4)cn3c2=O)c1)C1CCC1 (single isomer, unassigned) [Compound 419]",> 10
16,"CO[C@H]1C[C@](c2cccc(-n3cc4c(C(F)(F)F)cc([C@H](C)N5CCC[C@H](C)C5)cn4c3=O)c2)(c2nncn2C)C1 (single isomer, unassigned) [Compound 605]",< 0.1
17,"C[C@H]1CCCN(Cc2cc(C(F)(F)F)c3cn(-c4cccc([C@]5(c6nncn6C)C[C@](C)(O)C5)c4)c(=O)n3c2)C1 (single isomer, unassigned) [Compound 418]",3 to 10
18,"Cn1cnnc1[C@@H](c1cc(F)cc(-n2cc3c(C(F)(F)F)cc(CN4CC5(CC5)C4)cn3c2=O)c1)C1CCC1 (single isomer, unassigned) [Compound 533]",1 to 3
19,"Cn1cnnc1[C@H](c1cc(F)cc(-n2cc3c(C(F)(F)F)cc(CN4CC5(CC5)C4)cn3c2=O)c1)C1CCC1 (single isomer, unassigned) [Compound 539]",< 0.1
20,Cn1cnnc1[C@H](c1cccc(-n2cc3c(C(F)(F)F)cccn3c2=O)c1)C1CCC1 [Compound 401_P1],< 0.1
21,"C[C@H]1CC(=O)NN1Cc1cc(C(F)(F)F)c2cn(-c3cccc([C@H](c4nncn4C)C4CCC4)c3)c(=O)n2c1 (single isomer, unassigned) [Compound 599]",< 0.1
22,Cn1cnnc1[C@@H](c1cccc(-n2cc3c(C(F)(F)F)cc(CN4CCCS4(=O)=O)cn3c2=O)c1)C1CCC1 [Compound 541],< 0.1
23,Cn1cnnc1[C@@H](c1cccc(-n2cc3c(C(F)(F)F)cc(CN4CCN(S(C)(=O)=O)CC4)cn3c2=O)c1)C1CCC1 [Compound 572],< 0.1
